The source of these data is ChEMBL document CHEMBL3259686, “Biologically active dichapetalins from Dichapetalum gelonioides” (J Nat Prod, 2014).

Activity calls are given as the source filed them. The calls are words filed in the database; no cut-off is given here. Some results are limits rather than exact numbers.

In series [1] the test system is Fusarium oxysporum f. sp. niveum. The series is described as follows: Antifungal activity against Fusarium oxysporum f. sp. niveum at 50 ug/disc after 2 days by disk diffusion method. The class given is functional. The settings on record: for zone of inhibition at 50 µg/disc: 48 h, read-out: DIZ. On the technique in general: Agar diffusion results depend on both activity and mobility in agar.

The nature of series [2]: Antifungal activity against Cylindrocarpon musae at 50 ug/disc after 2 days by disk diffusion method. It is filed as functional.
Another series deals with SMMC-7721. Put plainly: Cytotoxicity against human SMMC7721 cells after 48 hrs by MTS assay. The class given is functional, cell-based. Conditions: SMMC-7721, 48 h. In general terms: Tetrazolium dyes change colour on reduction, which living cells bring about.
Another series deals with Spodoptera exigua. The series is described as follows: Antifeedant activity against beet armyworm after 24 hrs. It is filed as functional, organism-based.
Another series relates to SW480. Put plainly: Cytotoxicity against human SW480 cells after 48 hrs by MTS assay. The class given is functional, cell-based. Conditions: SW480, 48 h.
The test system of the next series is A549. The series is described as follows: Cytotoxicity against human A549 cells after 48 hrs by MTS assay. It is filed as functional, cell-based. The settings on record: A549, 48 h.
The test system of series [3] is Colletotrichum gloeosporioides. The series is described as follows: Antifungal activity against Colletotrichum gloeosporioides at 50 ug/disc after 2 days by disk diffusion method. The class given is functional. Conditions: for zone of inhibition at 50 µg/disc: 48 h, read-out: DIZ.
The next series relates to Rhizoctonia solani. The series is described as follows: Antifungal activity against Rhizoctonia solani at 50 ug/disc after 2 days by disk diffusion method. Conditions: for zone of inhibition at 50 µg/disc: 48 h, read-out: DIZ. It is filed as functional.
Another series concerns HL-60. The series is described as follows: Cytotoxicity against human HL60 cells after 48 hrs by MTS assay. The class given is functional, cell-based. Conditions: HL-60, 48 h.
The subject of another series is Panagrellus redivivus. The series is described as follows: Nematicidal activity against Panagrellus redivivus assessed as mortality at 100 ug/ml after 72 hrs by light binocular microscopic analysis (reference value: 7.1 +/- 0.9%). It is filed as functional.
In the next series the test system is MCF7. The series is described as follows: Cytotoxicity against human MCF7 cells after 48 hrs by MTS assay. Conditions: MCF7, 48 h. The class given is functional, cell-based.
Another series concerns HCT-116. The series is described as follows: Cytotoxicity against human HCT116 cells. It is filed as functional, cell-based.
Series [4] is described as follows: Cytotoxicity against human WM266.4 cells. The class given is functional, cell-based. The settings on record: WM 266-4.
The test system of series [5] is RAW264.7. Put plainly: Cytotoxicity against mouse RAW264.7 cells by MTT assay. It is filed as cell-based.
The test system of series [6] is RAW264.7. The series is described as follows: Inhibition of LPS-induced nitric oxide production in mouse RAW264.7 cells by Griess method. The class given is functional, cell-based.
In series [7] the test system is RAW264.7. The series is described as follows: Ratio of MG132 IC50 to compound IC50 for LPS-induced nitric oxide production in mouse RAW264.7 cells. The class given is functional.

As a reminder, the IC50 is the concentration that inhibits the measured activity by half. A word on the mortality: it is the percentage killed. As to `C[C@]1(OC(=O)C[C@@H](O)c2ccc(O)cc2)CO[C@@]2(C[C@@H]([C@@H]3CC[C@]45C[C@]34C=C[C@@H]3[C@@]4(C)CC=C6C[C@@H](c7ccccc7)OC[C@]6(C)[C@@H]4CC(=O)[C@]35C)C(=O)O2)C1`, the zone of inhibition at 50 µg/disc in [1] was found to be 12.8 mm; in series [3], 12.4 mm; in the series with Rhizoctonia solani it was 13.8 mm. Besides, in series [2], the inhibition zone (IZ) is 12.8 mm. Further, the IC50 was over 40 µM in the series with SMMC-7721; over 40 µM with SW480; 26.8 µM in the series on A549; over 40 µM in the series on HL-60; 8.2 µM with MCF7. Moreover, in the series with Spodoptera exigua, the EC50 came to 78.7 microg/cm2. Besides, in the series on Panagrellus redivivus, the mortality at 100 µg/mL is 20.5%.
Take `CC(=O)O[C@@]1(C)CO[C@@]2(C1)OC(=O)[C@H]([C@@H]1CC[C@]34C[C@]13C=C[C@@H]1[C@@]3(C)CC=C5C[C@@H](c6ccccc6)OC[C@]5(C)[C@@H]3[C@@H](O)C(=O)[C@]14C)[C@H]2O`: the EC50 in the series on HCT-116 is 0.0099 µM; in series [4] it was 0.078 µM.
Take `COC(=O)[C@@H](C[C@@]1(OC)C[C@](C)(O)CO1)[C@@H]1CC[C@]23C[C@]12C=C[C@@H]1[C@@]2(C)CC=C4C[C@@H](c5ccccc5)OC[C@]4(C)[C@@H]2CC(=O)[C@]13C`: the EC50 in the series with Spodoptera exigua was found to be 3.1 microg/cm2.
Regarding `COc1ccc([C@@H]2CC3=CC[C@]4(C)[C@H]5C=C[C@]67C[C@]6(CC[C@H]7[C@@H]6C[C@H](/C=C(\C)CO)OC6=O)[C@]5(C)[C@H](O)C[C@H]4[C@@]3(C)CO2)cc1` [DICHAPETALIN K], in the series with Panagrellus redivivus, the mortality at 100 µg/mL worked out at 4.4%.
`COC(=O)[C@@H](Cc1cc(C)co1)[C@@H]1CC[C@]23C[C@]12C=C[C@@H]1[C@@]2(C)CC=C4C[C@@H](c5ccccc5)OC[C@]4(C)[C@@H]2CC(=O)[C@]13C`: the IC50 was 24.8 µM in the series on SMMC-7721; over 40 µM in the series with SW480; 17.6 µM in the series on A549; 10.2 µM with HL-60; 21 µM in the series on MCF7. This compound also showed an EC50 in the series with Spodoptera exigua of over 100 microg/cm2. For the same compound, the mortality at 100 µg/mL in the series with Panagrellus redivivus amounted to 2.5%.
Regarding `COc1ccc([C@@H]2CC3=CC[C@@]4(C)[C@@H](CC(=O)[C@]5(C)[C@@H]4C=C[C@]46C[C@@]45CC[C@H]6[C@@H]4C[C@@]5(OC[C@](C)(OC(=O)CCc6ccc(O)cc6)[C@H]5O)OC4=O)[C@@]3(C)CO2)cc1`, the 50% inhibitory concentration (IC50) in the series with SMMC-7721, in the series on SW480, in the series on A549, in the series with HL-60 and in the series with MCF7 was over 40 µM each time. The EC50 with Spodoptera exigua is on record as 28.9 microg/cm2. Besides, in the series with Panagrellus redivivus, the mortality at 100 µg/mL amounted to 7.8%.
The compound `C[C@]12CC=C3C[C@@H](c4ccccc4)OC[C@]3(C)[C@@H]1C[C@@H](O)[C@]1(C)[C@@H]2C=C[C@]23C[C@]12CC[C@H]3[C@@H]1C[C@@]2(OC[C@](C)(OC(=O)CCc3ccc(O)cc3)[C@H]2O)OC1=O` showed an EC50 in the series on Spodoptera exigua of 9.8 microg/cm2. In addition, in the series with Panagrellus redivivus, the mortality at 100 µg/mL was found to be 61.8%.
Taken in the same sequence, the figures for `COc1ccc([C@@H]2CC3=CC[C@@]4(C)[C@@H](CC(=O)[C@]5(C)[C@@H]4C=C[C@]46C[C@@]45CC[C@H]6[C@@H]4C[C@]5(C[C@@](C)(OC(=O)C[C@@H](O)c6ccc(O)cc6)CO5)OC4=O)[C@@]3(C)CO2)cc1` were over 100 microg/cm2 and 4.8%.
Turning to `C[C@]1(O)CO[C@@]2(C1)OC(=O)[C@H]([C@@H]1CC[C@]34C[C@]13C=C[C@@H]1[C@@]3(C)CC=C5C[C@@H](c6ccccc6)OC[C@]5(C)[C@@H]3CC(=O)[C@]14C)[C@H]2O`, the mortality at 100 µg/mL in the series with Panagrellus redivivus is 46.3%.
In the case of `C/C(=C\[C@H]1C[C@@H]([C@@H]2CC=C3[C@]4(C)[C@H](O)C[C@@H]5[C@](C)(CC=C6C[C@@H](c7ccccc7)OC[C@@]65C)[C@H]4CC[C@]32C)C(=O)O1)CO`, the EC50 with Spodoptera exigua was found to be 3.4 microg/cm2. In addition, the mortality at 100 µg/mL in the series on Panagrellus redivivus was found to be 3%.
With `C/C(=C\[C@H]1C[C@@H]([C@@H]2CC[C@]34C[C@]23C=C[C@@H]2[C@@]3(C)CC=C5C[C@@H](c6ccccc6)OC[C@]5(C)[C@@H]3C[C@@H](O)[C@]24C)C(=O)O1)CO` [DICHAPETALIN A], the “diameter of the inhibition zone (DIZ)” value in series [1] and in series [3] was “inactive” in each case. The compound also showed an inhibition zone (IZ) in [2] of 12.8 mm. Moreover, in the series with RAW264.7 [5], the Activity entry is given as “Non-toxic”. In the series on RAW264.7 [6], 0.02 µM corresponded to half-maximal inhibition (IC50). Moreover, in the series with Spodoptera exigua, the EC50 came to 3.1 microg/cm2. The “Ratio IC50” value with RAW264.7 [7] turned out to be 20. The zone of inhibition at 50 µg/disc in the series on Rhizoctonia solani came out at 10.5 mm. In addition, the mortality at 100 µg/mL in the series on Panagrellus redivivus stood at 15.3%.
Turning to `CC(=O)O[C@@]1(C)CO[C@@]2(C[C@@H]([C@@H]3CC[C@]45C[C@]34C=C[C@@H]3[C@@]4(C)CC=C6C[C@@H](c7ccccc7)OC[C@]6(C)[C@@H]4CC(=O)[C@]35C)C(=O)O2)C1`, the zone of inhibition at 50 µg/disc worked out at 11.5 mm in [1] and 10.1 mm in series [3]. The compound further registered an inhibition zone (IZ) in series [2] of 13.8 mm. For the same compound, the EC50 with Spodoptera exigua came to 11.7 microg/cm2. Moreover, the “diameter of the inhibition zone (DIZ)” value in the series on Rhizoctonia solani was “inactive”.
On to `C[C@]1(OC(=O)C[C@@H](O)c2ccc(O)cc2)CO[C@@]2(C1)OC(=O)[C@H]([C@@H]1CC[C@]34C[C@]13C=C[C@@H]1[C@@]3(C)CC=C5C[C@@H](c6ccccc6)OC[C@]5(C)[C@@H]3CC(=O)[C@]14C)[C@H]2O`, for which the IC50 came to 18.7 µM in the series with SMMC-7721; 21 µM in the series with SW480; 3 µM with A549; 5.1 µM in the series with HL-60; 3.5 µM with MCF7.
In the case of NYSTATIN, the inhibition zone (IZ) in series [1] turned out to be 12 mm; in series [2], 16.6 mm; in series [3] it was 14.5 mm; in the series on Rhizoctonia solani, 14.7 mm.
